According to article PMC9551036, “A selective and orally bioavailable VHL-recruiting PROTAC achieves SMARCA2 degradation in vivo” (Nature Communications, 2022):
Several values for one entry are separate records, joined by “and”; a condition that tells them apart may be missing. Equal entries are not always repeated. Where two headings read alike, the source gives them in different places.

Tests used:
[1] = biological target: T1, PBRM1BD5 (Homo sapiens, UniProt Q86U86); test: TR-FRET ternary complex affinity and cooperativity, PBRM1; type: binding; settings: TR-FRET competition for PBRM1BD5, without VCB; mean ± SD; read-out: TR-FRET PBRM1BD EC50
T1 construct: GST (TEV site) (N); His6 (TEV site) (N, cleaved yes); made in house; host or cells: PBRM1^BD5: Escherichia coli BL21(DE3)

[2] = biological target: T2, VCB: PROTAC: SMARCA2^BD ternary complex (Homo sapiens, UniProt P51531); test: TR-FRET ternary complex affinity and cooperativity, SMARCA2; type: binding
T2 construct: P51531-2, residues 1373-1493 with additional N-terminal SM residues; GST (TEV site) (N); His6 (TEV site) (N, cleaved yes); made in house; host or cells: SMARCA2^BD: Escherichia coli BL21(DE3)

[3] = biological target: T3, PBRM1 BD (Homo sapiens, UniProt Q86U86); test: TR-FRET binary and ternary (PROTAC + VCB) affinity, PBRM1 bromodomain; type: binding; settings: individual replicates
T3 construct: GST (TEV site) (N); made in house; host or cells: Escherichia coli BL21(DE3)

[4] = biological target: VCB: PROTAC: SMARCA2^BD ternary complex (Homo sapiens, UniProt P40337+P51531); test: TR-FRET ternary complex affinity and cooperativity, SMARCA2; type: binding; set-up: P51531-2, residues 1373-1493 with additional N-terminal SM residues; GST (TEV site) (N); His6 (TEV site) (N, cleaved yes); made in house; host or cells: SMARCA2^BD: Escherichia coli BL21(DE3)
[5] = test system: NCI-H1568 cells; test: Cell viability assay (CellTiter Glo) in NCI-H1568; type: cell-based, human; settings: for EC50: read-out: EC50 cell proliferation (CellTiter Glo); for IC50: CellTiter Glo, individual replicates, read-out: NCI-H1568 (18h) CTG
Protocol: 500–2000 cells were seeded in white, clear bottom 96-well plates (Corning or Perkin Elmer) in 180–200 µl medium per well. The next day, compounds were added using a digital dispenser and a T0 sample was measured for reference. […], and viability (luminescence) was measured using CellTiter Glo or CellTiter Glo 2.0 (Promega) according to manufacturer’s instructions after equilibrating cells and reagents at room temperature and 10–20 min incubation time while shaking.

[6] = biological target: VCB: PROTAC: SMARCA4^BD ternary complex (Homo sapiens, UniProt P40337+P51532); test: TR-FRET ternary complex affinity and cooperativity, SMARCA4; type: binding; set-up: P51532, residues 1448–1569 with additional N-terminal SM residues; GST (TEV site) (N); His6 (TEV site) (N, cleaved yes); made in house; host or cells: SMARCA4^BD: Escherichia coli BL21(DE3)
[7] = TR-FRET competition for SMARCA2BD, without VCB, mean ± SD, read-out: TR-FRET SMARCA2BD EC50
[8] = binary, PROTAC alone, individual replicates, read-out: SMARCA2 BD EC50
[9] = PROTAC + VCB, read-out: Ternary PBRM1 BD EC50 (PROTAC + VCB)
[10] = binary, PROTAC alone, read-out: PBRM1 EC50
[11] = PROTAC + VCB, individual replicates, read-out: Ternary SMARCA2 BD EC50 (PROTAC + VCB)
[12] = TR-FRET competition for SMARCA2BD, + VCB, mean ± SD, read-out: TR-FRET Ternary SMARCA2BD EC50 (PROTAC + VCB)
[13] = PROTAC + VCB, individual replicates, read-out: Ternary SMARCA4 BD EC50 (PROTAC + VCB)
[14] = TR-FRET competition for SMARCA4BD, + VCB, mean ± SD, read-out: TR-FRET Ternary SMARCA4BD EC50 (PROTAC + VCB)

Sequence of VCB: PROTAC: SMARCA4^BD ternary complex (P51532 1448-1569): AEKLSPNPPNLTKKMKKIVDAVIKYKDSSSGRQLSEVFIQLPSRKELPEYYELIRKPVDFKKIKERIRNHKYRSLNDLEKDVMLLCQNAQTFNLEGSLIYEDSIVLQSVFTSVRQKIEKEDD
Sequence of VCB: PROTAC: SMARCA4^BD ternary complex (P40337 54-213): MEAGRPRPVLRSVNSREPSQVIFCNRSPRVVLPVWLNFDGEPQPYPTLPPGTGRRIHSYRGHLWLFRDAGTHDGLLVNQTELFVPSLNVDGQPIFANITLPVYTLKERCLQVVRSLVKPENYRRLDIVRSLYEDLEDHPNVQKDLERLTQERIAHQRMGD
Sequence of VCB: PROTAC: SMARCA4^BD ternary complex (Q15369 17-112 partner): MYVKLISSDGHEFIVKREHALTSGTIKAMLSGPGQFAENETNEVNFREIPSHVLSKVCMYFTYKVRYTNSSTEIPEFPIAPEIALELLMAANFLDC
Sequence of VCB: PROTAC: SMARCA4^BD ternary complex (Q15370 1-104 partner): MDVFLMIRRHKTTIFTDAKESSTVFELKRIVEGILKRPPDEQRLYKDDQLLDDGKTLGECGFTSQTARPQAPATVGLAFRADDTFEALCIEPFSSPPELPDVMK
T1 sequence (Q86U86 645-766): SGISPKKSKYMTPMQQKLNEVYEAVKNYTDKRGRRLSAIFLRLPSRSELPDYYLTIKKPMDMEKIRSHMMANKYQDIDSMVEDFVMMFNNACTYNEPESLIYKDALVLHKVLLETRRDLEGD
Sequence of VCB: PROTAC: SMARCA2^BD ternary complex (Homo sapiens, UniProt P40337+P51531) (P51531 with tags, fused parts or gaps isoform P51531-2): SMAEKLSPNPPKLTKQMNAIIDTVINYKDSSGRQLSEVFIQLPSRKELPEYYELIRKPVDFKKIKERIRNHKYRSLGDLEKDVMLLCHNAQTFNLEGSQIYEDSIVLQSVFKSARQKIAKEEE
Sequence of VCB: PROTAC: SMARCA2^BD ternary complex (Homo sapiens, UniProt P40337+P51531) (P40337 54-213): as the sequence (P40337 54-213) above
Sequence of VCB: PROTAC: SMARCA2^BD ternary complex (Homo sapiens, UniProt P40337+P51531) (Q15369 17-112 partner): as the sequence (Q15369 17-112 partner) above
Sequence of VCB: PROTAC: SMARCA2^BD ternary complex (Homo sapiens, UniProt P40337+P51531) (Q15370 1-104 partner): as the sequence (Q15370 1-104 partner) above
T2 sequence (P51531 with tags, fused parts or gaps isoform P51531-2): as the sequence (P51531 with tags, fused parts or gaps isoform P51531-2) above

Structure (SMILES)	EC50 [1] [nM]	EC50 [2, 7] [nM]	EC50 [2, 8]	EC50 [3, 9]	EC50 [3, 10]	EC50 [4, 11]	EC50 [4, 12] [nM]	EC50 ([5]; NCI-H1568 ([…]), mean ± SD) [nM]	IC50 ([5]; NCI-H1568, (18h))	EC50 [6, 13]	EC50 [6, 14] [nM]	EC50 ([5]; Homo sapiens, NCI-H1568, […]) [nM]	IC50 ([5]; Homo sapiens, NCI-H1568, 18 h) [nM]
Cc1ncsc1-c1ccc(CNC(=O)[C@@H]2C[C@@H](O)CN2C(=O)[C@@H](NC(=O)C2(F)CC2)C(C)(C)C)c(OCCCCN2CCC(c3ccc4c(c3)n(C3CCCC3)c3nc(=O)c5c(Br)cccc5n43)CC2)c1 [compound 23]	39 ± 5	98 ± 12	88.5 nM and 111 nM and 107 nM and 87.4 nM	18.3 nM and 22.9 nM and 22.1 nM	46.2 nM and 37.9 nM and 38.2 nM and 36.1 nM	115 nM and 127 nM and 132 nM and 372 nM	164 ± 124	104 ± 27	133 nM and 78.5 nM and 108 nM	165 nM and 215 nM and 180 nM and 280 nM	206 ± 51	–	–
Cc1ncsc1-c1ccc([C@H](CCCCN2CCC(c3ccc4c(c3)n(C3CCCC3)c3nc(=O)c5c(Br)cccc5n43)CC2)NC(=O)[C@@H]2C[C@@H](O)CN2C(=O)[C@@H](NC(=O)C2(F)CC2)C(C)(C)C)cc1 [compound 25]	36 ± 12	87 ± 35	179 nM and 54.5 nM and 63.5 nM and 111 nM and 66.9 nM and 57.7 nM and 73.7 nM and 97.8 nM and 88.9 nM and 103 nM and 118 nM and 101 nM and 123 nM and 55.7 nM	2.29 nM and 2.88 nM and 3.31 nM and 5.31 nM and 3.22 nM	33 nM and 36.4 nM and 33.2 nM and 57.3 nM and 26.6 nM	208 nM and 27.9 nM and 62.3 nM and 29 nM and 29.1 nM and 33.2 nM and 38.8 nM and 39.9 nM and 50.6 nM and 51.7 nM and 46 nM and 34.5 nM and 27.1 nM	43 ± 48	7 ± 4	11.9 nM and 5.25 nM and 6.51 nM	69.7 nM and 82.3 nM and 75.3 nM and 90.7 nM	79 ± 9	–	–
Cc1ncsc1-c1ccc([C@H](COC(C)CN2CCC(c3ccc4c(c3)n(C3CCCC3)c3nc(=O)c5c(Br)cccc5n43)CC2)NC(=O)[C@@H]2C[C@@H](O)CN2C(=O)[C@@H](NC(=O)C2(N(C)C)CC2)C(C)(C)C)cc1 (stereo partly shown) [compound 10]	31 ± 1	150 ± 52	120 nM and 130 nM and 128 nM and 228 nM and 217 nM and 116 nM	6.43 nM and 7.96 nM and 8.03 nM and 9.7 nM	30.5 nM and 31.7 nM and 30 nM	13.9 nM and 16.3 nM and 16.6 nM and 37.3 nM and 12.6 nM and 9.3 nM and 12.5 nM	15 ± 9	–	21.5 nM and 20 nM and 8.75 nM	69.6 nM and 88.2 nM and 77.2 nM and 49.4 nM	70 ± 16	16 ± 7	–
Nc1cccc2c1c(=O)nc1n(C3CCCC3)c3ccccc3n21 [compound 2]	1000	1770	1620 nM and 1970 nM and 1530 nM and 2040 nM	934 nM and 1020 nM and 925 nM	1080 nM and 1000 nM and 929 nM	1910 nM and 2000 nM and 1540 nM and 2490 nM	1950	–	–	2270 nM and 2610 nM and 2110 nM	2320	> 10000	> 10000
Cc1ncsc1-c1ccc(CNC(=O)[C@@H]2C[C@H](O)CN2C(=O)[C@@H](NC(=O)C2(F)CC2)C(C)(C)C)c(OCCN2CCC(c3ccc4c(c3)n(C3CCCC3)c3nc(=O)c5c(Br)cccc5n43)CC2)c1 [compound 19]	38 ± 2	85 ± 7	79.1 nM and 82 nM and 94.2 nM	38.5 nM and 41 nM and 40.2 nM	35.2 nM and 39.5 nM and 40.1 nM	69.1 nM and 75.9 nM and 70.4 nM	72 ± 3	564 ± 384	595 nM and 1050 nM and 287 nM	201 nM and 160 nM and 159 nM	173 ± 19	–	–
